Reference: ChEMBL document CHEMBL2440076, “New triarylpyrazoles as broad-spectrum anticancer agents: design, synthesis, and biological evaluation” (Eur J Med Chem, 2013)

What was measured:
NCI-H522 = assay: Growth inhibition of human NCI-H522 cells assessed as cell growth at 10 uM after 48 hrs by sulforhodamine B assay; format: functional; conditions: NCI-H522, 48 h, read-out: Activity
SK-MEL-28 = assay: Growth inhibition of human SK-MEL-28 cells after 48 hrs by sulforhodamine B assay; format: functional; conditions: SK-MEL-28, 48 h
IGROV-1 = assay: Growth inhibition of human IGROV1 cells after 48 hrs by sulforhodamine B assay; format: functional; conditions: IGROV-1, 48 h
SF-268 [1] = assay: Growth inhibition of human SF268 cells after 48 hrs by sulforhodamine B assay; format: functional; conditions: SF-268, 48 h; for CC50: read-out: LC50 (the source's name)
LOX IMVI [2] = assay: Growth inhibition of human LOXIMVI cells after 48 hrs by sulforhodamine B assay; format: functional
HOP-92 = assay: Growth inhibition of human HOP92 cells assessed as cell growth at 10 uM after 48 hrs by sulforhodamine B assay; format: functional; conditions: HOP-92, 48 h, read-out: Activity
SK-MEL-2 = assay: Growth inhibition of human SK-MEL-2 cells after 48 hrs by sulforhodamine B assay; format: functional; conditions: SK-MEL-2, 48 h
HOP-62 [3] = assay: Growth inhibition of human HOP62 cells after 48 hrs by sulforhodamine B assay; format: functional; conditions: HOP-62, 48 h; for CC50: read-out: LC50 (the source's name)
Malme-3M = assay: Growth inhibition of human MALME-3M cells after 48 hrs by sulforhodamine B assay; format: functional
HOP-62 [4] = assay: Growth inhibition of human HOP62 cells assessed as cell growth at 10 uM after 48 hrs by sulforhodamine B assay; format: functional; conditions: HOP-62, 48 h, read-out: Activity
SF-295 = assay: Growth inhibition of human SF295 cells after 48 hrs by sulforhodamine B assay; format: functional, cell-based; conditions: SF-295, 48 h; for CC50: read-out: LC50 (the source's name)
[5] = Growth inhibition of human NCI-ADR-RES cells assessed as cell growth at 10 uM after 48 hrs by sulforhodamine B assay; format: functional; conditions: read-out: Activity
SK-OV-3 = assay: Growth inhibition of human SKOV3 cells assessed as cell growth at 10 uM after 48 hrs by sulforhodamine B assay; format: functional; conditions: SK-OV-3, 48 h, read-out: Activity
SF-268 [6] = assay: Growth inhibition of human SF268 cells assessed as cell growth at 10 uM after 48 hrs by sulforhodamine B assay; format: functional; conditions: SF-268, 48 h, read-out: Activity
UO-31 = assay: Growth inhibition of human UO31 cells after 48 hrs by sulforhodamine B assay; format: functional; conditions: UO-31, 48 h; for CC50: read-out: LC50 (the source's name)
COLO 205 = assay: Growth inhibition of human COLO205 cells assessed as cell growth at 10 uM after 48 hrs by sulforhodamine B assay; format: functional; conditions: COLO 205, 48 h, read-out: Activity
MDA-MB-231 = assay: Growth inhibition of human MDA-MB-231 cells after 48 hrs by sulforhodamine B assay; format: functional; conditions: MDA-MB-231, 48 h
K562 = assay: Growth inhibition of human K562 cells after 48 hrs by sulforhodamine B assay; format: functional; conditions: K562, 48 h; for CC50: read-out: LC50 (the source's name)
BT-549 = assay: Growth inhibition of human BT549 cells assessed as cell growth at 10 uM after 48 hrs by sulforhodamine B assay; format: functional; conditions: BT-549, 48 h, read-out: Activity
MCF7 = assay: Growth inhibition of human MCF7 cells after 48 hrs by sulforhodamine B assay; format: functional; conditions: MCF7, 48 h
CAKI-1 = assay: Growth inhibition of human CAKI-1 cells assessed as cell growth at 10 uM after 48 hrs by sulforhodamine B assay; format: functional; conditions: CAKI-1, 48 h, read-out: Activity
LOX IMVI [7] = assay: Growth inhibition of human LOXIMVI cells assessed as cell growth at 10 uM after 48 hrs by sulforhodamine B assay; format: functional; conditions: read-out: Activity
MOLT-4 = assay: Growth inhibition of human MOLT4 cells after 48 hrs by sulforhodamine B assay; format: functional; conditions: MOLT-4, 48 h; for CC50: read-out: LC50 (the source's name)
PC-3 = assay: Growth inhibition of human PC3 cells assessed as cell growth at 10 uM after 48 hrs by sulforhodamine B assay; format: functional; conditions: PC-3, 48 h, read-out: Activity
OVCAR-5 = assay: Growth inhibition of human OVCAR5 cells after 48 hrs by sulforhodamine B assay; format: functional; conditions: OVCAR-5, 48 h
HL-60(TB) = assay: Growth inhibition of human HL-60(TB) cells assessed as cell growth at 10 uM after 48 hrs by sulforhodamine B assay; format: functional; conditions: HL-60, 48 h, read-out: Activity
NCI-H226 = assay: Growth inhibition of human NCI-H226 cells after 48 hrs by sulforhodamine B assay; format: functional; conditions: NCI-H226, 48 h; for CC50: read-out: LC50 (the source's name)
UACC-62 = assay: Growth inhibition of human UACC62 cells after 48 hrs by sulforhodamine B assay; format: functional; conditions: UACC-62, 48 h
NCI-H23 [8] = assay: Growth inhibition of human NCI-H23 cells after 48 hrs by sulforhodamine B assay; format: functional; conditions: NCI-H23, 48 h
NCI-H23 [9] = assay: Growth inhibition of human NCI-H23 cells assessed as cell growth at 10 uM after 48 hrs by sulforhodamine B assay; format: functional; conditions: NCI-H23, 48 h, read-out: Activity
MDA-MB-435 = assay: Growth inhibition of human MDA-MB-435 cells assessed as cell growth at 10 uM after 48 hrs by sulforhodamine B assay; format: functional; conditions: MDA-MB-435, 48 h, read-out: Activity
[10] = Growth inhibition of human HCC2998 cells after 48 hrs by sulforhodamine B assay; format: functional; conditions: HCC 2998, 48 h; for CC50: read-out: LC50 (the source's name)
NCI-H322M = assay: Growth inhibition of human NCI-H322M cells assessed as cell growth at 10 uM after 48 hrs by sulforhodamine B assay; format: functional; conditions: read-out: Activity
U-251 = assay: Growth inhibition of human U251 cells assessed as cell growth at 10 uM after 48 hrs by sulforhodamine B assay; format: functional; conditions: U-251, 48 h, read-out: Activity

## COc1cc(-c2nn(-c3cccc(NC(=O)Nc4ccc(Cl)c(C(F)(F)F)c4)c3)cc2-c2ccncc2)ccc1Cl
NCI-H522
  growth at 10 µM: -13.9%
SK-MEL-28
  GI50: 1.2 µM
  LC50: 19.1 µM
  TGI: 5.01 µM
IGROV-1
  GI50: 1.2 µM
  LC50 (concentration killing 50% of cells): > 32.5 µM
  TGI: 4.22 µM
SF-268 [1]
  GI50: 1.46 µM
  TGI: 9.14 µM
  CC50: > 32.5 µM
LOX IMVI [2]
  GI50: 1.17 µM
  LC50: 17.9 µM
  TGI: 4.61 µM
HOP-92
  growth at 10 µM: -37.5%
SK-MEL-2
  GI50: 1.01 µM
  LC50 (50% lethal concentration): 17.5 µM
  TGI: 2.58 µM
HOP-62 [3]
  GI50: 1.31 µM
  TGI: 6.49 µM
  CC50: 31 µM
Malme-3M
  GI50: 0.838 µM
  LC50 (concentration killing 50% of starting cells): > 32.5 µM
  TGI: 2.35 µM
HOP-62 [4]
  growth at 10 µM: 5.4%
SF-295
  GI50: 0.84 µM
  IC50: 0.84 µM
  TGI: 2.54 µM
  CC50: 14.9 µM
[5]
  growth at 10 µM: -0.86%
SK-OV-3
  growth at 10 µM: 0.43%
SF-268 [6]
  growth at 10 µM: 13.8%
UO-31
  GI50: 0.865 µM
  TGI: 4.1 µM
  CC50: > 32.5 µM
COLO 205
  growth at 10 µM: -91.6%
MDA-MB-231
  GI50: 0.76 µM
  LC50: 13.3 µM
  TGI: 2.6 µM
K562
  GI50: 1.21 µM
  TGI: > 32.5 µM
  CC50: > 32.5 µM
BT-549
  growth at 10 µM: 7.16%
MCF7
  GI50: 0.919 µM
  LC50: > 32.5 µM
  TGI: > 32.5 µM
CAKI-1
  growth at 10 µM: 14.7%
LOX IMVI [7]
  growth at 10 µM: 1.06%
MOLT-4
  GI50: 1.02 µM
  TGI: 7.96 µM
  CC50: > 32.5 µM
PC-3
  growth at 10 µM: -19.1%
OVCAR-5
  GI50: 3.09 µM
  LC50 (concentration killing 50% of cells): > 32.5 µM
  TGI: 11 µM
HL-60(TB)
  growth at 10 µM: -19.8%
NCI-H226
  GI50: 1.82 µM
  TGI: > 32.5 µM
  CC50: > 32.5 µM
UACC-62
  GI50: 0.737 µM
  LC50 (50% lethal concentration): 11.6 µM
  TGI: 2.09 µM
NCI-H23 [8]
  GI50: 1.31 µM
  LC50: > 32.5 µM
  TGI: 8.03 µM
NCI-H23 [9]
  growth at 10 µM: 5.69%
MDA-MB-435
  growth at 10 µM: -52.3%
[10]
  GI50: 1.55 µM
  TGI: 7.3 µM
  CC50: > 32.5 µM
NCI-H322M
  growth at 10 µM: 32.3%
U-251
  growth at 10 µM: -20.9%

## O=C(Nc1cccc(-n2cc(-c3ccncc3)c(-c3ccc(Cl)c(O)c3)n2)c1)Nc1cccc(C(F)(F)F)c1
NCI-H522
  growth at 10 µM: -10.8%
SK-MEL-28
  GI50: 4.11 µM
  LC50: > 32.5 µM
  TGI: > 32.5 µM
IGROV-1
  GI50: 1.64 µM
  LC50 (concentration killing 50% of cells): > 32.5 µM
  TGI: > 32.5 µM
SF-268 [1]
  GI50: 1.95 µM
  TGI: 15.8 µM
  CC50: > 32.5 µM
LOX IMVI [2]
  GI50: 2.53 µM
  LC50: 32.4 µM
  TGI: 9.58 µM
HOP-92
  growth at 10 µM: -17.7%
SK-MEL-2
  GI50: 2.02 µM
  LC50 (50% lethal concentration): > 32.5 µM
  TGI: 10.8 µM
HOP-62 [3]
  GI50: 6.86 µM
  TGI: > 32.5 µM
  CC50: > 32.5 µM
Malme-3M
  GI50: 1.81 µM
  LC50 (concentration killing 50% of starting cells): > 32.5 µM
  TGI: 20.1 µM
HOP-62 [4]
  growth at 10 µM: 38.1%
SF-295
  GI50: 0.962 µM
  IC50: 0.96 µM
  TGI: 4.26 µM
  CC50: 29.2 µM
[5]
  growth at 10 µM: 24.9%
SK-OV-3
  growth at 10 µM: 21.2%
SF-268 [6]
  growth at 10 µM: 28.5%
UO-31
  GI50: 1.86 µM
  TGI: > 32.5 µM
  CC50: > 32.5 µM
COLO 205
  growth at 10 µM: 94.2%
MDA-MB-231
  GI50: 3.59 µM
  LC50: > 32.5 µM
  TGI: 26.8 µM
K562
  GI50: 1.44 µM
  TGI: > 32.5 µM
  CC50: > 32.5 µM
BT-549
  growth at 10 µM: 36%
MCF7
  GI50: 1.34 µM
  LC50: > 32.5 µM
  TGI: > 32.5 µM
CAKI-1
  growth at 10 µM: 30.1%
LOX IMVI [7]
  growth at 10 µM: 23.8%
MOLT-4
  GI50: 1.92 µM
  TGI: > 32.5 µM
  CC50: > 32.5 µM
PC-3
  growth at 10 µM: 4.28%
OVCAR-5
  GI50: 13.7 µM
  LC50 (concentration killing 50% of cells): > 32.5 µM
  TGI: > 32.5 µM
HL-60(TB)
  growth at 10 µM: 12.5%
NCI-H226
  GI50: 7.35 µM
  TGI: > 32.5 µM
  CC50: > 32.5 µM
UACC-62
  GI50: 1.65 µM
  LC50 (50% lethal concentration): 21.9 µM
  TGI: 6.91 µM
NCI-H23 [8]
  GI50: 1.9 µM
  LC50: > 32.5 µM
  TGI: > 32.5 µM
NCI-H23 [9]
  growth at 10 µM: 14.6%
MDA-MB-435
  growth at 10 µM: 15.6%
[10]
  GI50: 7.26 µM
  TGI: > 32.5 µM
  CC50: > 32.5 µM
NCI-H322M
  growth at 10 µM: 48.2%
U-251
  growth at 10 µM: 15.8%
